The values below come from patent US7939712B2, “Method to alleviate abiotic stress in plants by expression of mitochondrial-targeted purple acid phosphatase” (The Chinese University of Hong Kong, priority 2006, dated 2011).

For this assay, the system named is BY-2 cells. As to the kind of experiment: Analysis of mitochondria integrity (Rh123 staining) under NaCl or PEG stress. The class given is cell-based, tobacco. The following applies: wild type BY-2 + 10 mM ascorbic acid. The protocol: Cells were treated with 200 mM NaCl for 1 h or 2% PEG for 1 h before staining with 10 μg/ml rhodamine-123 (Rh123) (R302, Molecular Probes) for 1 h. The signal of Rh123 was excited by green HeNe laser at 543 nm. The filter set HQ590/70 was used and confocal images were collected by the Bio-Rad Radiance 2100 system. 10-25 cells were counted for each sample for statistical analysis.
Transgenic BY-2 cell lines prepared as in Example 1 were cultured to express the GmPAP3 protein and subjected to treatment with sodium chloride or polyethylene glycol (PEG, osmotic stress) as explained above and in the description of the results as shown in FIGS. 3A-3L. The results on mitochondrial integrity were compared with the effect of the presence of ascorbic acid. The results are shown in the table below which summarizes the data in FIGS. 3A-3L. The data are the results of counting 10-25 cells and the experiment repeated 3 times. The percentage was presented as the mean value of 3 experiments±SD, where ** denotes statistical difference (p<0.01) from the wild type BY-2 cells under the same treatment, based on one-way ANOVA followed by the Turkey test.
Wild type (WT) BY-2 cells (FIGS. 3A-3C) and GmPAP3 transgenic BY-2 cell lines #20 and #29 (FIGS. 3G-3I and FIGS. 3J-3L, respectively) without ascorbic acid supplements and wild type BY-2 cells with 10 mM ascorbic acid supplements (+Asc) (FIGS. 3D-3F) were pre-treated in a cell culture medium without stress (FIGS. 3A, 3D, 3G and 3J), with 200 mM NaCl for 1 hr (FIGS. 3B, 3E, 3H and 3K), or with 2% PEG for 1 h (FIGS. 3C, 3F, 3I, 3L) before staining with 10 μg/mL Rh123 for another hour. The signal of Rh123 was observed using a confocal laser scanning microscope (see materials and methods). 10-25 cells were counted for each line. Scale bar=50 μm.

Marks after values point to notes of the source that are not given here.

`O=C1O[C@H]([C@@H](O)CO)C(O)=C1O` [ascorbic acid]: the “% cells with intact mitochondria, NaCl” value (200 mM NaCl 1 h, mean of 3 experiments ± SD) is recorded as 86.20 ± 3.3** %. In addition, the “% cells with intact mitochondria, PEG” value (2% PEG 1 h, mean of 3 experiments ± SD) is listed as 82.16 ± 3.7** %. Further, the “% cells with intact mitochondria, Control” value (medium without stress) stood at 100%.
